Data set [1] addresses T1, m7GpppX diphosphatase (Mus musculus, UniProt Q9DAR7).
T1 sequence (Q9DAR7 whole entry): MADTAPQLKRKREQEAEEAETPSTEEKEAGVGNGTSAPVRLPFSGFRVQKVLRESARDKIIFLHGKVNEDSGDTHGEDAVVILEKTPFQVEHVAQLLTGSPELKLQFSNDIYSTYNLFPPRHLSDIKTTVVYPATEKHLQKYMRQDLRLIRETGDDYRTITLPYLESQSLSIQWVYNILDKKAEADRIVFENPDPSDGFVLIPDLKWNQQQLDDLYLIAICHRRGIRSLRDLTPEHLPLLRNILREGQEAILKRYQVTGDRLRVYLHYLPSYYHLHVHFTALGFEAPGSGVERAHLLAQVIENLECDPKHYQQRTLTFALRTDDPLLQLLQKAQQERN
The data set is described as follows: Inhibition of DcpS in human SMN2 promoter driven mouse NSC-34 cell lysate assessed as increase in SMN2 expression after 18 hrs by beta-lactamase reporter gene assay. For orientation: A reporter such as luciferase makes a cellular process visible.

Data set [2] concerns the target T2, m7GpppX diphosphatase (Homo sapiens) (UniProt Q96C86).
T2 sequence (whole entry): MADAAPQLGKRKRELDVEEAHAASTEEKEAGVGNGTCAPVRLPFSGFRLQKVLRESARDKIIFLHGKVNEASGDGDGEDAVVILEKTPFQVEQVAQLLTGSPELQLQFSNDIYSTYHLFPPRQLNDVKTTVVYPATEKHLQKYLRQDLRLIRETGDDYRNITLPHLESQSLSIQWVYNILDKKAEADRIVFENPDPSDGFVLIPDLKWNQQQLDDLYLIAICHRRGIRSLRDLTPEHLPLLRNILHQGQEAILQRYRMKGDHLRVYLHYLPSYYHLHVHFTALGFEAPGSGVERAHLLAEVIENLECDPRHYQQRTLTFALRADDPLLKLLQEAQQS
The experiment in a line: Binding affinity to recombinant human N-terminal GST-tagged DcpS expressed in baculovirus-infected Sf9 insect cells at 100 nM after 90 mins in presence of [125I]-streptavidin by microarray assay. Conditions: tested as the 125I-labelled form.

The target of data set [3] is T1, m7GpppX diphosphatase. The data set is described as follows: Inhibition of DcpS in human SMN2 promoter driven mouse NSC-34 cells assessed as increase in SMN2 mRNA expression after 18 hrs by RT-PCR analysis.
Data set [4] has as its target T2, m7GpppX diphosphatase (Homo sapiens). The experiment in a line: Inhibition of recombinant flag-tagged DcpS (unknown origin) decapping activity assessed as hydrolysis of m7GpppG to m7G at 200 nM using unlabeled cap structure as substrate after 30 secs by PEI cellulose thin-layer chromatographic assay (reference value: 62%). Also noted: scale not given: the % may be the effect or the level left.

Data set [5] has the same target. The experiment in a line: Inhibition of recombinant flag-tagged DcpS (unknown origin) decapping activity assessed as hydrolysis of m7GpppG to m7G at 40 nM using unlabeled cap structure as substrate after 30 secs by PEI cellulose thin-layer chromatographic assay (reference value: 62%). Details: scale not given: the % may be the effect or the level left.
For data set [6] the target is unchanged. The data set is described as follows: Inhibition of recombinant flag-tagged DcpS (unknown origin) decapping activity assessed as hydrolysis of m7GpppG to m7G at 8 nM using unlabeled cap structure as substrate after 30 secs by PEI cellulose thin-layer chromatographic assay (reference value: 62%). Details: scale not given: the % may be the effect or the level left.

For data set [7] the target is unchanged. The experiment in a line: Inhibition of recombinant flag-tagged DcpS (unknown origin) decapping activity assessed as hydrolysis of m7GpppG to m7G at 1.6 nM using unlabeled cap structure as substrate after 30 secs by PEI cellulose thin-layer chromatographic assay (reference value: 62%). Details: scale not given: the % may be the effect or the level left.
In data set [8] the test system is Mus musculus. The data set is described as follows: Increase in life span of timed-pregnant SMNdelta7 carrier mouse prenatal dams at 3 mg/kg/day administered orally beginning at embryonic day 11.5 continued through birth and once the pups were born. In kind it is functional.
Data set [9] has as its system Mus musculus. The experiment in a line: Toxicity in SMNdelta7 carrier mouse assessed as adverse events at 0.1 to 30 mg/kg/day administered orally beginning at PND04 for 5 days. Type of data set: organism-based. The settings on record: in vivo, po, 120 h.
Data set [10] concerns Mus musculus. The experiment in a line: Increase in life span of timed-pregnant SMNdelta7 carrier mouse prenatal dams at 3 mg/kg/day administered orally beginning at embryonic day 11.5 continued after birth (reference value: 13.3 +/- 0.6 day). In kind it is functional.
The test system of data set [11] is Mus musculus. The data set is described as follows: Increase in life span of SMNdelta7 SMA mouse model at 3 mg/kg/day administered orally beginning at PND04, continued for duration of their lives by Kaplan-Meier plot method relative to untreated control. Type of data set: functional.
Data set [12] deals with Mus musculus. The experiment in a line: Increase in SMN protein levels in spinal cord extracts isolated from SMNdelta7 SMA mouse model at 3 mg/kg/day administered orally beginning at PND04 for 5 days by immunoblot analysis relative to SMNdelta7 carrier mouse. Type of data set: functional. (In general: In western blotting, separated proteins are transferred to a membrane and probed.)

Data set [13] relates to Brain. The experiment in a line: Drug level in fetal brain extracts isolated from timed-pregnant SMNdelta7 carrier mouse prenatal dams administered orally beginning at embryonic day 11.5 for 5 days by LC-MS-MS analysis. Type of data set: ADME, tissue-based. Conditions: in vivo, po, 120 h.
In data set [14] the test system is Mus musculus. The experiment in a line: Increase in Smn promoter activity in spinal cord extracts isolated from Smn knockout mouse containing LacZ:NeoR cassette inserted into mouse Smn exon 2A assessed as optimal effective dose administered orally beginning at PND04 for 5 days by beta-galactosidase light chemiluminescent reporter gene assay. In kind it is functional.

For data set [15], the system named is Mus musculus. The data set is described as follows: Increase in SMN protein levels in spinal cord extracts isolated from SMNdelta7 SMA mouse model at 3 mg/kg/day administered orally beginning at PND04 for 5 days by immunoblot analysis. In kind it is functional.
Data set [16] concerns Mus musculus. The data set is described as follows: Effect on life span of SMNdelta7 SMA mouse model assessed as survival at 3 mg/kg/day administered orally on onset of motor neuron loss at PND09, continued for duration of their lives by Kaplan-Meier plot method (reference value: 14 +/- 0.4 day). Type of data set: functional.
In data set [17] the test system is Mus musculus. The data set is described as follows: Induction in delay of onset of body mass loss in SMNdelta7 SMA mouse model at 3 mg/kg/day administered orally beginning at PND04, continued for duration of their lives by Kaplan-Meier plot method (reference value: 11.1 +/- 0.3 day). Type of data set: functional.
Data set [18] concerns Mus musculus. The data set is described as follows: Induction in delay of onset of body mass loss in timed-pregnant SMNdelta7 carrier mouse prenatal dams at 3 mg/kg/day administered orally beginning at embryonic day 11.5 continued through birth and once the pups were born. Type of data set: functional.
In data set [19] the test system is Mus musculus. The data set is described as follows: Increase in Smn promoter activity in forebrain extracts isolated from Smn knockout mouse containing LacZ:NeoR cassette inserted into mouse Smn exon 2A assessed as optimal effective dose administered orally beginning at PND04 for 5 days by beta-galactosidase light chemiluminescent reporter gene assay. In kind it is functional.

Data set [20] deals with Brain. The data set is described as follows: Drug uptake in brain of SMNdelta7 carrier mouse […] at 0.1 to 30 mg/kg/day administered orally beginning at PND04 for 5 days. Type of data set: ADME, organism-based. Conditions: in vivo, po, 120 h.
Data set [21] concerns Mus musculus. The experiment in a line: Induction in delay of onset of body mass loss in timed-pregnant SMNdelta7 carrier mouse prenatal dams at 3 mg/kg/day administered orally only during prenatal period. Type of data set: functional.
In data set [22] the target is T3, m7GpppX diphosphatase (Homo sapiens, UniProt Q96C86).
T3 sequence (Q96C86 whole entry): T2 sequence (whole entry)
The data set is described as follows: Inhibition of recombinant flag-tagged DcpS (unknown origin) decapping activity assessed as reduction in hydrolysis of m7GpppG to m7G using unlabeled cap structure as substrate after 30 secs by PEI cellulose thin-layer chromatographic assay.

Molecules are shown by their SMILES. Active and inactive are the calls of the source. No cut-off for these calls is given here.

Results on 9 molecules are retold here after ChEMBL document CHEMBL3991949, “Inhibition of DCPS” (2009).

With `Nc1nc(N)c2c(OCC3CCN(C(=O)c4cccc(I)c4)CC3)cccc2n1`, the EC50 at m7GpppX diphosphatase [1] stood at 36 nM. Besides, the result in data set [2] was Active.
With `Nc1nc(N)c2c(OCC3CCN(c4ccccc4Cl)CC3)cccc2n1`, on m7GpppX diphosphatase [3], the EC50 was 795 nM.
As to `C[n+]1cn([C@@H]2O[C@H](COP(=O)(O)OP(=O)([O-])OP(=O)(O)OC[C@H]3O[C@@H](n4cnc5c(=O)[nH]c(N)nc54)[C@H](O)[C@@H]3O)[C@@H](O)[C@H]2O)c2nc(N)nc(O)c21`, the Activity in data set [4] is 7%; in data set [5], 24%; in data set [6], 46%; in data set [7], 55%.
As for `Nc1nc(N)c2c(OCC3CCN(Cc4ccccc4F)CC3)cccc2n1`, the Activity in the data set with Mus musculus [8] was 30%; in the data set on Mus musculus [9], “Non-Toxic”; in the data set on Mus musculus [10], 14.1 days; in the data set on Mus musculus [11], 21%; with Mus musculus [12], 25%; with Mus musculus [14] it was 3 mg/kg/day. Moreover, the Activity was 70% in the data set on Mus musculus [15]; 12 days in the data set with Mus musculus [17]; 15% with Mus musculus [18]; 3 mg/kg/day with Mus musculus [19]; 10% in the data set on Mus musculus [21]. Also, the Drug uptake entry with Brain [13] and in the data set on Brain [20] was “Dose-dependent effect” in each case. Also, in the data set with Mus musculus [16], the Survival worked out at 14.9 days.
As for `Cn1ccnc1CN1CCC(COc2cccc3nc(N)nc(N)c23)CC1`, the EC50 on m7GpppX diphosphatase [3] came out at 108 nM.
For `Nc1nc(N)c2c(OCC3CCN(CC4CCNCC4)CC3)cccc2n1`, the EC50 at m7GpppX diphosphatase [3] came out at 921 nM.
In the case of `Nc1nc(N)c2c(OCC3CCN(CC(F)(F)F)CC3)cccc2n1`, the EC50 on m7GpppX diphosphatase [3] was found to be 223 nM.
In the case of `C[n+]1cn([C@@H]2O[C@H](COP(=O)(O)OP(=O)([O-])OP(=O)(O)OC[C@H]3O[C@@H](n4cnc5c(=O)[nH]c(N)nc54)[C@H](O)[C@@H]3O)[C@@H](O)[C@H]2O)c2nc(N)[nH]c(=O)c21`, the IC50 at m7GpppX diphosphatase [22] amounted to 30 nM.
On to `CC(=O)Nc1nc(CN2CCC(COc3cccc4nc(N)nc(N)c34)CC2)cs1`, for which the EC50 at m7GpppX diphosphatase [3] amounted to 2540 nM.

As usually defined, the EC50 is the concentration at which the effect is half-maximal. The IC50 is the concentration that inhibits the measured activity by half.
